The test system of the assay is CD2F1 mice, L1210 leukemia ip, survival T/C. Kind of assay: NCI In Vivo Anticancer Drug Screen. Data for tumor model L1210 Leukemia (intraperitoneal) in CD2F1 (CDF1) mice. Particulars: higher = longer survival. The procedure, abridged: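 Tumor-bearing mice (transplanted tumor) were split into treated and vehicle control groups, and the measured endpoint of each treated group was divided by that of its vehicle controls.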

[1] abbreviates: endpoint: mean survival time, dose: 100.0 mg/kg/injection, schedule: Q01DX009 (ip), vehicle: saline with Tween-80.
The mark [2] stands for this setting: endpoint: mean survival time, dose: 200.0 mg/kg/injection, schedule: Q01DX009 (ip), vehicle: saline with Tween-80.
The mark [3] stands for this setting: endpoint: mean survival time, dose: 400.0 mg/kg/injection, schedule: Q01DX009 (ip), vehicle: saline with Tween-80.
Where [4] appears, read: endpoint: mean survival time, dose: 100.0 mg/kg/injection, schedule: Q04DX003 (ip), vehicle: saline.
The mark [5] stands for this setting: endpoint: mean survival time, dose: 200.0 mg/kg/injection, schedule: Q04DX003 (ip), vehicle: saline.

Several values for one entry are separate records, joined by “and”; a condition that tells them apart may be missing. Equal entries are not always repeated. Toxic doses and inconclusive results are not listed.

For `Cc1ccc([N+](=O)[O-])c(N)n1`, the T/C under setting [1] was 96 % of control; the T/C (endpoint: mean survival time, dose: 100.0 mg/kg/injection, schedule: Q04DX003 (ip), vehicle: saline with Tween-80) is 98 % of control; the T/C under setting [2] was 86 % of control; the T/C (endpoint: mean survival time, dose: 200.0 mg/kg/injection, schedule: Q04DX003 (ip), vehicle: saline with Tween-80) was 98 % of control; the T/C (endpoint: mean survival time, dose: 400.0 mg/kg/injection, schedule: Q04DX003 (ip), vehicle: saline with Tween-80) is 100 % of control.

On to `Cc1cccc(NC(N)=S)n1`, for which the T/C was 103 % of control (endpoint: mean survival time, dose: 12.5 mg/kg/injection, schedule: Q01DX009 (ip), vehicle: other); 107 % of control (endpoint: mean survival time, dose: 25.0 mg/kg/injection, schedule: Q01DX009 (ip), vehicle: other); 107 % of control (endpoint: mean survival time, dose: 50.0 mg/kg/injection, schedule: Q01DX009 (ip), vehicle: other); 91 % of control (endpoint: mean survival time, dose: 100.0 mg/kg/injection, schedule: Q01DX009 (ip), vehicle: other); 111 % of control (endpoint: mean survival time, dose: 200.0 mg/kg/injection, schedule: Q01DX009 (ip), vehicle: other).

For the compound `[Cl][Pt+2][Cl].[NH-]CC([NH-])c1ccc2oc3ccccc3c2c1` (stereo not given), the T/C (endpoint: median survival time, dose: 10.0 mg/kg/injection, schedule: Q04DX003 (ip), vehicle: saline) was 100 % of control; the T/C (endpoint: median survival time, dose: 20.0 mg/kg/injection, schedule: Q04DX003 (ip), vehicle: saline) is 94 % of control; the T/C (endpoint: median survival time, dose: 40.0 mg/kg/injection, schedule: Q04DX003 (ip), vehicle: saline) was 105 % of control; the T/C (endpoint: median survival time, dose: 80.0 mg/kg/injection, schedule: Q04DX003 (ip), vehicle: saline with Tween-80) is 107 % of control; the T/C (endpoint: median survival time, dose: 80.0 mg/kg/injection, schedule: Q04DX003 (ip), vehicle: saline) is 110 % of control.

Take `CN(C)c1ccc(/C=N/NC(=O)CNC(=O)c2ccccc2)cc1`: the T/C reads like this: under setting [1], 95 % of control; under setting [2], 89 % of control; under setting [3], 89 % of control.

`Cc1cc(=O)n2cc(Br)ccc2n1`: the T/C was 108 % of control (endpoint: mean survival time, dose: 12.5 mg/kg/injection, schedule: Q01DX001 (ip), vehicle: saline); 107 % of control (endpoint: mean survival time, dose: 25.0 mg/kg/injection, schedule: Q01DX001 (ip), vehicle: saline); 96 % of control (endpoint: mean survival time, dose: 50.0 mg/kg/injection, schedule: Q01DX001 (ip), vehicle: saline).

For `NC(CCSc1ccccc1)C(=O)O` (stereo not given), the T/C reads like this: under setting [4], 104 % of control; under setting [5], 102 % of control; (endpoint: mean survival time, dose: 400.0 mg/kg/injection, schedule: Q04DX003 (ip), vehicle: saline) 88 % of control.

Take `O=C(O)/C=C(/CC(=O)O)C(=O)O`: the T/C was 98 % of control under setting [4] and 94 % of control under setting [5].

`COc1nc(NC2OC(CO)C(O)C(O)C2O)c(Br)c(=O)[nH]1` (stereo not given): the T/C runs as follows: (endpoint: median survival time, dose: 12.5 mg/kg/injection, schedule: Q01DX005 (ip), vehicle: saline) 100 % of control; (endpoint: median survival time, dose: 25.0 mg/kg/injection, schedule: Q01DX005 (ip), vehicle: saline) 101 % of control; (endpoint: median survival time, dose: 50.0 mg/kg/injection, schedule: Q01DX005 (ip), vehicle: saline) 102 % of control; (endpoint: median survival time, dose: 100.0 mg/kg/injection, schedule: Q01DX005 (ip), vehicle: saline) 101 % of control; (endpoint: median survival time, dose: 200.0 mg/kg/injection, schedule: Q01DX005 (ip), vehicle: saline) 101 % of control.

Consider `FC1(F)C(Cl)=[C]([Hg][C]2=C(Cl)C(F)(F)C(F)(F)C2(F)F)C(F)(F)C1(F)F`, for which, under “endpoint: mean survival time, dose: 75.0 mg/kg/injection, schedule: Q01DX001 (ip), vehicle: saline”, the T/C is 98 % of control.

In the case of `Clc1c(Br)nc(Br)nc1C(Cl)(Cl)Cl`, the T/C is 98 % of control (endpoint: mean survival time, dose: 6.25 mg/kg/injection, schedule: Q04DX003 (ip), vehicle: saline with Tween-80); 98 % of control (endpoint: mean survival time, dose: 12.5 mg/kg/injection, schedule: Q04DX003 (ip), vehicle: saline with Tween-80); 98 % of control (endpoint: mean survival time, dose: 25.0 mg/kg/injection, schedule: Q04DX003 (ip), vehicle: saline with Tween-80).

With `O=C1OC(=O)C2C1OC1C(=O)OC(=O)C12` (stereo not given), the T/C is 103 % of control (endpoint: mean survival time, dose: 6.25 mg/kg/injection, schedule: Q04DX002 (ip), vehicle: saline); 106 % of control (endpoint: mean survival time, dose: 12.5 mg/kg/injection, schedule: Q04DX002 (ip), vehicle: saline); 95 % of control (endpoint: mean survival time, dose: 25.0 mg/kg/injection, schedule: Q04DX002 (ip), vehicle: saline).

On to `CN(Cc1ccc2nc(N)nc(N)c2n1)c1ccc(C(=O)NC(CCC(=O)O)C(=O)O)cc1` (stereo not given), for which the T/C reads like this: (endpoint: mean survival time, dose: 0.12 mg/kg/injection, schedule: Q01DX005 (ip), vehicle: sodium bicarbonate) 150 % of control; (endpoint: mean survival time, dose: 0.5 mg/kg/injection, schedule: Q01DX005 (ip), vehicle: sodium bicarbonate) 115 % of control; (endpoint: mean survival time, dose: 31.25 micrograms/kg/injection, schedule: Q01DX005 (ip), vehicle: sodium bicarbonate) 101 % of control; (endpoint: mean survival time, dose: 62.5 micrograms/kg/injection, schedule: Q01DX005 (ip), vehicle: sodium bicarbonate) 116 % of control; (endpoint: mean survival time, dose: 125.0 micrograms/kg/injection, schedule: Q01DX005 (ip), vehicle: sodium bicarbonate) 122 % of control.

Regarding `C=CC(=O)Nc1cccc(OC(=O)NCC)c1`, the T/C by setting is: under setting [1], 94 % of control; under setting [2], 92 % of control; under setting [3], 97 % of control.

For `COc1cc(/C=N\N=C\c2ccc(O)c(OC)c2)ccc1O`, the T/C runs as follows: under setting [1], 98 % of control; under setting [2], 96 % of control.

On to `CN(C)c1ccc(/C=C/c2ccnc3ccccc23)cc1`, for which the T/C was 103 % of control (endpoint: mean survival time, dose: 12.5 mg/kg/injection, schedule: Q01DX Z (ip), vehicle: saline); 100 % of control (endpoint: mean survival time, dose: 16.0 mg/kg/injection, schedule: Q01DX008 (iv), vehicle: saline); 103 % of control (endpoint: mean survival time, dose: 25.0 mg/kg/injection, schedule: Q01DX Z (ip), vehicle: saline); 100 % of control (endpoint: mean survival time, dose: 32.0 mg/kg/injection, schedule: Q01DX008 (iv), vehicle: saline); 103 % of control (endpoint: mean survival time, dose: 50.0 mg/kg/injection, schedule: Q01DX Z (ip), vehicle: saline); 102 % of control (endpoint: mean survival time, dose: 64.0 mg/kg/injection, schedule: Q01DX008 (iv), vehicle: saline).

As for `c1ccc(-c2ccc(C3=NC(c4ccccc4)N4C3C4c3ccccc3)cc2)cc1` (stereo not given), the T/C is, setting by setting: (endpoint: mean survival time, dose: 6.25 mg/kg/injection, schedule: Q01DX001 (ip), vehicle: saline with Tween-80) 103 % of control; (endpoint: mean survival time, dose: 6.25 mg/kg/injection, schedule: Q01DX009 (ip), vehicle: saline with Tween-80) 91 % of control; (endpoint: mean survival time, dose: 12.5 mg/kg/injection, schedule: Q01DX001 (ip), vehicle: saline with Tween-80) 86 % of control; (endpoint: mean survival time, dose: 12.5 mg/kg/injection, schedule: Q01DX009 (ip), vehicle: saline with Tween-80) 94 % of control; (endpoint: mean survival time, dose: 25.0 mg/kg/injection, schedule: Q01DX001 (ip), vehicle: saline with Tween-80) 92 % of control.

With `COc1ccccc1NC(=O)NCCN(C)c1ccccc1`, the T/C reads like this: (endpoint: mean survival time, dose: 100.0 mg/kg/injection, schedule: Q04DX002 (ip), vehicle: saline with Tween-80) 88 % of control; (endpoint: mean survival time, dose: 200.0 mg/kg/injection, schedule: Q04DX002 (ip), vehicle: saline with Tween-80) 88 % of control.

With `O=C(O)C(O)C(O)C(OC1OC(CO)C(O)C(O)C1O)C(O)CO.[Br][Pt].[NH-]C1CCCCC1[NH-]` (stereo not given), the T/C reads like this: (endpoint: median survival time, dose: 6.25 mg/kg/injection, schedule: Q04DX003 (ip), vehicle: saline) 158 % of control; (endpoint: median survival time, dose: 12.5 mg/kg/injection, schedule: Q04DX003 (ip), vehicle: saline) 175 % of control; (endpoint: median survival time, dose: 25.0 mg/kg/injection, schedule: Q04DX003 (ip), vehicle: saline) 163 % of control and 212 % of control; (endpoint: median survival time, dose: 50.0 mg/kg/injection, schedule: Q04DX003 (ip), vehicle: saline) 178 % of control and 200 % of control.

Values taken from PubChem BioAssay AID256 (DTP/NCI, 2004).
